Reference: the supplement of paper PMC10331698
± gives the standard deviation of the averaged measurements.

Tests used:
Test in all cases: level (log10 ratio to DMSO vehicle control); higher = higher biomarker level / cell amount than vehicle control
Settings in all cases: in DMSO
[1] = compound: FC(F)(F)C(F)(F)C(F)(F)CC1CO1 [1H,1H-Heptafluorobutyl epoxide]
Protocol: (§1)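 BioMAP Diversity Plus panel of 12 human primary cell co-culture systems (3C, 4H, LPS, SAg, BT, BF4T, BE3C, CASM3C, HDF3CGF, KF3CT, MyoF, Mphg). Compounds were added 1 h before stimulation and left for 24 h (MyoF 48 h; BT 72 h for soluble read-outs or 6 d for IgG). Biomarkers were read by ELISA, cytotoxicity by SRB, PBMC viability and proliferation by Alamar Blue. Each well value was divided by the mean of 8 DMSO control wells on the same plate and log10 transformed; duplicate blinded samples were tested at 4 concentrations.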

Heptafluorobutyl iodide = compound: FC(F)(F)C(F)(F)C(F)(F)CI [Heptafluorobutyl iodide]
Protocol: as §1

Octafluoroadipamide = compound: NC(=O)C(F)(F)C(F)(F)C(F)(F)C(F)(F)C(N)=O [Octafluoroadipamide]
Protocol: as §1

[2] = compound: O=C(O)C=CC(F)(C(F)(F)F)C(F)(F)F [3-(Perfluoroisopropyl)-2-propenoic acid]
Protocol: as §1

[3] = compound: O=S(=O)(Cl)C(F)(F)C(F)(F)C(F)(F)C(F)(F)C(F)(F)C(F)(F)C(F)(F)C(F)(F)F [Perfluoro-1-octanesulfonyl chloride]
Protocol: as §1

[4] = compound: O=S(=O)(F)C(F)(F)C(F)(F)C(F)(F)C(F)(F)C(F)(F)C(F)(F)C(F)(F)C(F)(F)F [Perfluorooctanesulfonyl fluoride]
Protocol: as §1

| Test System | level (log10) ([1]; 6700 nM) | level (log10) ([1]; 20000 nM) | level (log10) ([1]; 60000 nM) | level (log10) (Heptafluorobutyl iodide; 6700 nM) | level (log10) (Heptafluorobutyl iodide; 20000 nM) | level (log10) (Heptafluorobutyl iodide; 60000 nM) | level (log10) (Octafluoroadipamide; 6700 nM) | level (log10) (Octafluoroadipamide; 20000 nM) | level (log10) (Octafluoroadipamide; 60000 nM) | level (log10) ([2]; 6700 nM) | level (log10) ([2]; 20000 nM) | level (log10) ([2]; 60000 nM) | level (log10) ([3]; 6700 nM) | level (log10) ([3]; 20000 nM) | level (log10) ([3]; 60000 nM) | level (log10) ([4]; 6700 nM) | level (log10) ([4]; 20000 nM) | level (log10) ([4]; 60000 nM) |
| --- | --- | --- | --- | --- | --- | --- | --- | --- | --- | --- | --- | --- | --- | --- | --- | --- | --- | --- |
| 3C:SRB | 0.002 ± 0.035 | 0.0005 ± 0.018 | -0.0185 ± 0.0064 | -0.0045 ± 0.0064 | -0.0025 ± 0.012 | 0.0025 ± 0.021 | -0.0105 ± 0.047 | -0.008 ± 0.052 | -0.005 ± 0.03 | 0.0035 ± 0.0078 | 0.0055 ± 0.019 | 0.0155 ± 0.015 | -0.0105 ± 0.0078 | 0.0015 ± 0.022 | -0.233 ± 0.084 | 0.0035 ± 0.00071 | -0.0035 ± 0.0078 | -0.003 ± 0.013 |
| BE3C:uPA | -0.022 ± 0.014 | -0.004 ± 0.0042 | -0.0065 ± 0.00071 | -0.0015 ± 0.00071 | -0.0105 ± 0.00071 | -0.0025 ± 0.0035 | -0.0155 ± 0.00071 | -0.0055 ± 0.0078 | 0.0005 ± 0.021 | -0.0045 ± 0.005 | -0.001 ± 0.0057 | 0.0045 ± 0.0021 | -0.006 ± 0.0028 | 0.0085 ± 0.0064 | -0.133 ± 0.059 | 0.0045 ± 0.0021 | -0.011 ± 0.0057 | 0.004 ± 0.014 |
| CASM3C:CXCL9/MIG | -0.01 ± 0.011 | -0.0145 ± 0.023 | 0.004 ± 0.013 | -0.0295 ± 0.0021 | -0.0225 ± 0.0021 | -0.002 ± 0.038 | 0.0115 ± 0.053 | -0.004 ± 0.014 | 0.0215 ± 0.037 | -0.004 ± 0.0099 | 0.002 ± 0.0057 | 0.027 ± 0.023 | 0.0015 ± 0.052 | 0.013 ± 0.035 | 0.0735 ± 0.033 | -0.0025 ± 0.00071 | 0.001 ± 0.0057 | 0.0075 ± 0.011 |
| KF3CT:CXCL8/IL-8 | -0.021 ± 0.027 | -0.0135 ± 0.03 | 0.0015 ± 0.0035 | -0.0095 ± 0.00071 | -0.0325 ± 0.005 | -0.015 ± 0.016 | -0.005 | -0.0055 ± 0.0021 | 0.0095 ± 0.023 | 0.001 ± 0.013 | 0.0085 ± 0.028 | 0.018 ± 0.0014 | 0.006 ± 0.0042 | 0.0095 ± 0.016 | 0.0615 ± 0.025 | 0.001 ± 0.028 | 0.0005 ± 0.025 | 0.007 ± 0.0071 |
| 3C:CXCL9/MIG | -0.005 ± 0.0071 | -0.0135 ± 0.0064 | -0.0035 ± 0.022 | -0.01 ± 0.0028 | -0.0095 ± 0.0021 | 0.0025 ± 0.0035 | -0.002 ± 0.0028 | 0 ± 0.0057 | 0.024 ± 0.011 | 0.004 ± 0.0071 | -0.0105 ± 0.0064 | 0.0045 ± 0.016 | -0.011 ± 0.0057 | -0.003 ± 0.0028 | 0.021 ± 0.018 | -0.008 ± 0.0099 | -0.0015 ± 0.00071 | 0.0055 ± 0.012 |
| lMphg:CCL3/MIP-1alpha | -0.039 ± 0.0057 | -0.0135 ± 0.019 | 0.0135 ± 0.015 | 0.023 ± 0.079 | 0.0315 ± 0.11 | 0.06 ± 0.045 | 0.0425 ± 0.032 | 0.019 ± 0.047 | 0.0295 ± 0.013 | -0.031 ± 0.018 | -0.0285 ± 0.016 | -0.0125 ± 0.016 | 0.038 ± 0.03 | 0.004 ± 0.041 | 0.025 ± 0.018 | -0.0035 ± 0.053 | -0.004 ± 0.021 | -0.001 ± 0.017 |
| KF3CT:CXCL10/IP-10 | -0.011 ± 0.027 | -0.012 ± 0.021 | -0.0175 ± 0.016 | -0.009 ± 0.0014 | -0.0175 ± 0.0078 | -0.013 ± 0.0028 | -0.002 ± 0.0042 | 0.002 ± 0.0071 | 0.0005 ± 0.005 | 0.0105 ± 0.035 | 0.0075 ± 0.032 | 0.0125 ± 0.023 | -0.0165 ± 0.00071 | -0.0455 ± 0.00071 | -0.16 ± 0.0099 | -0.0015 ± 0.0035 | -0.0105 ± 0.00071 | -0.011 ± 0.014 |
| MyoF:Collagen III | -0.007 ± 0.011 | -0.012 ± 0.011 | -0.012 ± 0.0042 | -0.0095 ± 0.019 | -0.033 ± 0.013 | -0.0205 ± 0.033 | 0.0035 ± 0.011 | 0.009 ± 0.0057 | -0.0075 ± 0.025 | -0.0055 ± 0.022 | 0.003 ± 0.0071 | 0.0075 ± 0.005 | -0.0155 ± 0.0035 | -0.0315 ± 0.00071 | -0.164 ± 0.035 | 0.0095 ± 0.018 | -0.0005 ± 0.03 | 0.009 ± 0.0099 |
| MyoF:CD106/VCAM-1 | -0.007 ± 0.013 | -0.007 ± 0.038 | -0.0205 ± 0.03 | -0.003 ± 0.0085 | -0.018 ± 0.0071 | -0.0055 ± 0.00071 | -0.006 ± 0.021 | 0.026 ± 0.0057 | 0.002 ± 0.0014 | 0.006 ± 0.011 | 0.0035 ± 0.00071 | -0.0035 ± 0.0035 | -0.0025 ± 0.0064 | 0.0025 ± 0.025 | -0.0195 ± 0.0092 | -0.0105 ± 0.00071 | -0.0105 ± 0.005 | -0.0185 ± 0.011 |
| lMphg:CD40 | -0.005 ± 0.025 | -0.001 ± 0.016 | 0.0045 ± 0.0021 | -0.025 ± 0.031 | -0.0065 ± 0.013 | -0.024 ± 0.0057 | -0.0055 ± 0.0021 | -0.0125 ± 0.0035 | 0.0155 ± 0.00071 | -0.0395 ± 0.053 | -0.01 ± 0.025 | -0.0045 ± 0.019 | -0.0165 ± 0.019 | -0.01 | -0.0065 ± 0.0035 | -0.023 ± 0.051 | -0.0205 ± 0.049 | -0.0575 ± 0.042 |
| HDF3CGF:Collagen I | -0.0105 ± 0.029 | 0.0175 ± 0.023 | -0.013 ± 0.028 | 0.0275 ± 0.03 | 0.021 ± 0.0099 | 0.065 ± 0.047 | -0.005 ± 0.0057 | -0.015 ± 0.033 | 0.0045 ± 0.042 | -0.0205 ± 0.043 | -0.0065 ± 0.023 | 0.0475 ± 0.035 | 0.001 ± 0.0057 | -0.01 ± 0.0071 | 0.0135 ± 0.066 | -0.0055 ± 0.057 | 0.015 ± 0.014 | 0.041 ± 0.027 |
| HDF3CGF:CXCL11/I-TAC | -0.0165 ± 0.063 | -0.016 ± 0.093 | -0.0255 ± 0.11 | -0.0515 ± 0.019 | -0.069 ± 0.076 | -0.091 ± 0.045 | -0.0025 ± 0.011 | 0 ± 0.023 | 0.018 ± 0.0014 | -0.004 ± 0.0014 | 0.015 ± 0.025 | 0.002 ± 0.021 | -0.038 ± 0.0028 | -0.0315 ± 0.018 | -0.0145 ± 0.022 | -0.0035 ± 0.0021 | -0.012 ± 0.0028 | -0.0155 ± 0.0021 |
| 3C:CXCL8/IL-8 | -0.0225 ± 0.019 | -0.019 ± 0.0057 | 0 ± 0.018 | -0.026 ± 0.018 | -0.0225 ± 0.019 | -0.0025 ± 0.04 | 0.0145 ± 0.042 | 0.0035 ± 0.025 | 0.041 ± 0.0042 | -0.001 ± 0.038 | -0.0275 ± 0.0092 | 0.028 ± 0.033 | 0.013 ± 0.014 | 0.043 ± 0.013 | 0.16 ± 0.0099 | -0.006 ± 0.0085 | 0.002 | 0.0145 ± 0.019 |
| CASM3C:CCL2/MCP-1 | -0.007 ± 0.023 | -0.0275 ± 0.00071 | 0.004 ± 0.014 | -0.0055 ± 0.0021 | -0.021 ± 0.011 | 0.018 ± 0.045 | -0.0095 ± 0.0078 | -0.0085 ± 0.0078 | 0.017 ± 0.02 | 0.007 ± 0.017 | -0.0055 ± 0.011 | 0.023 ± 0.044 | -0.0025 ± 0.0078 | -0.0115 ± 0.0092 | 0.031 ± 0.044 | -0.004 ± 0.014 | -0.0035 ± 0.005 | 0.0055 ± 0.03 |
| HDF3CGF:Collagen III | -0.0355 ± 0.1 | -0.0515 ± 0.1 | -0.0555 ± 0.1 | -0.043 ± 0.12 | -0.051 ± 0.018 | -0.0075 ± 0.11 | 0.0035 ± 0.044 | 0.0225 ± 0.00071 | 0.023 ± 0.052 | -0.0125 ± 0.00071 | 0.009 ± 0.0014 | 0.033 ± 0.038 | 0.0055 ± 0.021 | 0.0365 ± 0.015 | -0.008 ± 0.062 | 0.055 ± 0.016 | 0.039 ± 0.025 | -0.03 ± 0.055 |
| MyoF:MMP-1 | 0.01 ± 0.013 | -0.013 ± 0.051 | 0.0455 ± 0.1 | -0.022 ± 0.0099 | -0.0545 ± 0.0078 | -0.0125 ± 0.039 | 0.0115 ± 0.036 | -0.0085 ± 0.0078 | 0.0325 ± 0.079 | -0.0205 ± 0.021 | -0.031 ± 0.0014 | 0.006 ± 0.068 | -0.013 ± 0.017 | -0.0095 ± 0.0092 | 0.0705 ± 0.061 | -0.0275 ± 0.013 | -0.011 ± 0.0085 | -0.007 ± 0.047 |
